Assay results as given in PubChem BioAssay (NCI).
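Exposure lasted 48 hours, with cells grown in 96-well plates and compounds tested at five concentrations. TGI marks complete inhibition of growth.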

Legend:
Test in all cases: inhibition of tumour cell growth, NCI panel, 48 h
A498 renal = system: A498 renal
HCC-2998 colon = system: HCC-2998 colon
HOP-62 NSCLC = system: HOP-62 NSCLC
HS 578T breast = system: HS 578T breast
K-562 leukemia = system: K-562 leukemia
NCI-H226 lung = system: NCI-H226 lung
NCI-H460 lung = system: NCI-H460 lung
NCI/ADR-RES ovarian = system: NCI/ADR-RES ovarian
OVCAR-5 ovarian = system: OVCAR-5 ovarian
SF-268 CNS = system: SF-268 CNS
SF-295 CNS = system: SF-295 CNS
SF-539 CNS = system: SF-539 CNS
SK-MEL-2 melanoma = system: SK-MEL-2 melanoma
SK-MEL-28 melanoma = system: SK-MEL-28 melanoma
U251 CNS = system: U251 CNS
UO-31 renal = system: UO-31 renal

SMILES	TGI (A498 renal) [µM]	TGI (HCC-2998 colon) [µM]	TGI (HOP-62 NSCLC) [µM]	TGI (HS 578T breast) [µM]	TGI (K-562 leukemia) [µM]	TGI (NCI-H226 lung) [µM]	TGI (NCI-H460 lung) [µM]	TGI (NCI/ADR-RES ovarian) [µM]	TGI (OVCAR-5 ovarian) [µM]	TGI (SF-268 CNS) [µM]	TGI (SF-295 CNS) [µM]	TGI (SF-539 CNS) [µM]	TGI (SK-MEL-2 melanoma) [µM]	TGI (SK-MEL-28 melanoma) [µM]	TGI (U251 CNS) [µM]	TGI (UO-31 renal) [µM]
Cc1cccc(N/C(=C(/C(Cl)=C(Cl)Cl)[N+](=O)[O-])n2nnc3ccccc32)c1	25	> 100	33.3	21.8	> 100	26.6	45.1	49.4	38	31.1	32	32	36.3	28.1	26.9	31
Cc1sc2nc(N(C)C)oc(=O)c2c1C	> 100	> 100	> 100	> 100	> 100	> 100	> 100	> 100	> 100	> 100	> 100	> 100	> 100	> 100	> 100	> 100
COC(=O)/C(C)=N/NC(=S)SC	> 100	> 100	> 100	> 100	> 100	> 100	> 100	> 100	> 100	> 100	> 100	> 100	> 100	> 100	> 100	> 100
CC[C@@]1(O)C(=O)OCc2c1cc1n(c2=O)Cc2c-1nc1ccccc1c2/C=N\NC(=O)C[n+]1ccccc1	21.4	> 100		> 100	> 100	> 29.7	9.75	> 100	> 65.7	> 69.5	> 21.3	0.971	> 89.6	> 100	32	2.56
CC(C)OC(=O)c1ccc(NCC2=CC(=O)C=CC2=O)cc1	90.3	38.2	> 100	65.4	7.39	> 100	> 100	30.7	38.9	26.1	> 83.1	22.4	31.5	33	31.3	21.8
COC(=O)c1ccccc1/C=C1\Cc2c(ccc3c2CCC3)C1=O	> 100	> 100	> 100	> 100	> 100	> 100	> 100	> 100	> 100	> 100	> 100	> 100	> 100	> 100	> 100	> 100
NC(=O)NC1NC(=O)NC1=O (configuration not stated)	> 100	> 100	> 100	> 100	> 100	> 100	> 100	> 100	> 100	> 100	> 100	> 100	> 100	> 100	> 100	> 100
CC(C)C[C@H]1[C@@H](OCc2ccccc2)COS(=O)(=O)N1[C@H](C)c1ccccc1	> 100	> 100	> 100	> 100	> 100	> 100	> 100	> 100	> 100	> 100	> 100	> 100	> 100	> 100	> 67.7	> 100
